In brackets after ≈: the same amount, converted by molar mass.
Test: physchem
Assay type: physicochemical
Conditions: organic solvent or mixture

With `CCC1C(C)=NN=C(c2ccc(OC)c(OC)c2)c2cc(OC)c(OC)cc21` (racemic) [racemic tofisopam, 1-(3,4-dimethoxyphenyl)-4-methyl-5-ethyl-7,8-dimethoxy-5H-2,3-benzodiazepine] as the molecule, how does the solubility read?
The solubility was ~136 mg/mL (≈ 354 mM).
